The text below walks through data of patent publication US7396853B2, “2-phenyl-3,3,3-trifluoro-2-hydroxy-propionic acid derivatives” (Hoffmann-La Roche Inc., priority 2005, dated 2008).

The target in test [1] is T1, human GABABR1aR2a (Homo sapiens, UniProt O75899+Q9UBS5).
T1 construct: expressed in transfected cells
Description: Intracellular Ca2+ mobilization assay in CHO-GABABR1aR2a-Gα16 cell (enhancer concentration-response at 10 nM GABA). Type of test: cell-based. The following applies: for EC50: enhancer potency in presence of 10 nM GABA (EC10), CHO cells expressing human GABABR1aR2a and Gα16; for Emax: maximum enhancing effect in presence of 10 nM GABA (EC10), normalized to 10 μM GABA alone = 100%, 10 nM GABA alone = 0%, enhancer 0.001-30 μM applied 15 min before GABA. The protocol:
(§1) Intracellular Ca^2+ Mobilization Assay
(§2) The Chinese Hamster Ovary (CHO) cells stably expressing human GABABR1aR2a and Gα16 were seeded at 5×10^4 cells/well in the poly-D-lysine treated, 96-well, black/clear-bottomed plates (BD Biosciences, Palo Alto, Calif.). […] Probenecid (250 mM) (catalog No. P8761) was from Sigma, Buchs, Switzerland. […] The enhancers were applied 15 min before the application of the GABA. For GABA shift assay, concentration-response curves of GABA (0.0003-30 μM) were determined in the absence and presence of 10 μM enhancer. […] Responses were measured as peak increase in fluorescence minus basal, normalized to the maximal stimulatory effect induced by 10 μM GABA alone (considered 100%) and 10 nM GABA alone (considered 0%).

Test [2] has as its target T1, human GABABR1aR2a. Briefly: GABA shift assay (GABA concentration-response with and without 10 μM enhancer, FLIPR Ca2+ mobilization in CHO-GABABR1aR2a-Gα16 cell). Type of test: cell-based. The following applies: GABA 0.0003-30 μM, log ratio. Here is the method: as §1, §2
A general note: Calcium flux is commonly read through the fluorescence of an indicator in the cells.

T1 sequence (Q9UBS5 15-961 limits assumed): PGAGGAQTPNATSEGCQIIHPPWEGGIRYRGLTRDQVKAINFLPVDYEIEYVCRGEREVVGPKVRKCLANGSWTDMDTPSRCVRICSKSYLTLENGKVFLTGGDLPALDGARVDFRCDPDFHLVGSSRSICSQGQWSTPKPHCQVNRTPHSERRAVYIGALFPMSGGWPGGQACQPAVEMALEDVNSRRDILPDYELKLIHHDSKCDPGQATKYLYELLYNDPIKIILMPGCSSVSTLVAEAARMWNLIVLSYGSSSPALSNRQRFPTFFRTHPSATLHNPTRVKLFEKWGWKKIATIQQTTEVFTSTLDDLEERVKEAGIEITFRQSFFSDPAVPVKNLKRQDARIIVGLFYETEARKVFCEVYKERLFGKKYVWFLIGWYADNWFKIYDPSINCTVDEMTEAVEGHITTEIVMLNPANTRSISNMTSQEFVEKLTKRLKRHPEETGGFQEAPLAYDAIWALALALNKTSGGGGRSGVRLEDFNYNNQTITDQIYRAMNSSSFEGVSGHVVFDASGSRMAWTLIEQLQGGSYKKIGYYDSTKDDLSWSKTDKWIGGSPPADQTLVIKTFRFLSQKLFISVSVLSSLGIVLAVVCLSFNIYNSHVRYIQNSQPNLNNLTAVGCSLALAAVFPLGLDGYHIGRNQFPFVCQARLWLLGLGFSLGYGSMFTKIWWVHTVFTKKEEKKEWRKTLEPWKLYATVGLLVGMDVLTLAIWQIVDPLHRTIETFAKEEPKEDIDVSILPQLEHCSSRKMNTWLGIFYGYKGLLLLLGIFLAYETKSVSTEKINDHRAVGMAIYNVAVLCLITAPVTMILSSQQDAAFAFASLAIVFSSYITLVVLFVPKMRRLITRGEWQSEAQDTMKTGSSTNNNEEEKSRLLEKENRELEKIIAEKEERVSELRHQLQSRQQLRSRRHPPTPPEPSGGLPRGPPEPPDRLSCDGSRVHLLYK
T1 sequence (O75899 42-941): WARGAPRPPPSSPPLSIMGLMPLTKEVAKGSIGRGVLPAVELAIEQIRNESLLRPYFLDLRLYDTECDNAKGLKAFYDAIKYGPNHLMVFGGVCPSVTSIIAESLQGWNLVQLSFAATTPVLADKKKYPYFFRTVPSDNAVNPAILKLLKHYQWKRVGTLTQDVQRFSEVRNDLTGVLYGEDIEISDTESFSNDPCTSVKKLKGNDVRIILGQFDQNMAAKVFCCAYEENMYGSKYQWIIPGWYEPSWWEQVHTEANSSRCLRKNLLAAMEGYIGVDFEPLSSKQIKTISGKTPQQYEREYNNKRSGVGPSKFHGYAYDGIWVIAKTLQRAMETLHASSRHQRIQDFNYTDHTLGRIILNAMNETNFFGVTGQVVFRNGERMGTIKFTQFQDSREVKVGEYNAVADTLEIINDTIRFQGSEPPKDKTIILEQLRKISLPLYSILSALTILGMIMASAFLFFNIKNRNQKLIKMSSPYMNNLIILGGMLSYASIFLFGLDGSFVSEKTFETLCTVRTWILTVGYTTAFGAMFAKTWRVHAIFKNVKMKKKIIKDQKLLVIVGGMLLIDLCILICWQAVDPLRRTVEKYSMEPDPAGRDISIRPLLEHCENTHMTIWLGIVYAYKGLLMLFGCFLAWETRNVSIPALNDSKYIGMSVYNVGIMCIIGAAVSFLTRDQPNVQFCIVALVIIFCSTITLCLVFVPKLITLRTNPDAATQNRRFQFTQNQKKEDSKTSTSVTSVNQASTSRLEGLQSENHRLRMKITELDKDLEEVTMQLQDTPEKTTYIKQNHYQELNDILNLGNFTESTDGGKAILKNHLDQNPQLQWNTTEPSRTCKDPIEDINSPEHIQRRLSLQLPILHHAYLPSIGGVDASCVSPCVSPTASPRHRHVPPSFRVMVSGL

For orientation: EC50 means the midpoint of the concentration-response curve. For orientation: Emax means the size of the effect at its maximum, as opposed to the concentration needed. On to `CC(C)(C)c1cc(C(C)(C)C)c(O)c(C(O)(C(=O)O)C(F)(F)F)c1` (racemic) [Example 3, (R,S)-2-(3,5-Di-tert-butyl-2-hydroxy-phenyl)-3,3,3-trifluoro-2-hydroxy-propionic acid], for which, on human GABABR1aR2a [1], the EC50 is 0.32 µM and the Emax came to 70%. In addition, the “GABA shift Log [EC50 (GABA + 10 μM cp)/EC50 (GABA alone)]” value (from here on “GABA shift Log”) on human GABABR1aR2a [2] is −1.

With `COC(=O)C(O)(c1cc(C(C)(C)C)cc(C(C)(C)C)c1)C(F)(F)F` (racemic) [Example 7, (R,S)-2-(3,5-Di-tert-butyl-phenyl)-3,3,3-trifluoro-2-hydroxy-propionic acid methyl ester], at human GABABR1aR2a [1], the EC50 is 2.1 µM and the Emax was 66%. In addition, the “GABA shift Log” value at human GABABR1aR2a [2] was −0.9.

Turning to `Cc1cc(C(C)(C)C)c2c(c1)C(O)(C(F)(F)F)C(=O)O2` (racemic) [Example 9, (R,S)-7-tert-Butyl-3-hydroxy-5-methyl-3-trifluoromethyl-3H-benzofuran-2-one], at human GABABR1aR2a [1], the EC50 stood at 0.36 µM and the Emax was 62%. Moreover, at human GABABR1aR2a [2], the “GABA shift Log” value was −1.3.
